Assay results as given in ChEMBL document CHEMBL1122562, “Synthesis of 3-hydroxy-2- and -4-pyridone nucleosides as potential antitumor agents” (1984).
Activity calls are given as the source filed them. The calls are words filed in the database; no cut-off is given here.

What was measured:
[1] = test system: P388; test: Compound was tested in vitro for its inhibitory activity against murine P-388 leukemia at doses ranging from 25 to 400 mg/kg qd 1-5; minimally active T/Cvalues of 125 in this tumor system; type: functional, organism-based; conditions: Mus musculus
[2] = test system: P388; test: Compound was tested in vitro for its inhibitory activity against murine P-388 leukemia at doses ranging from 25 to 400 mg/kg qd 1-5 minimally active T/Cvalues of 125 in this tumor system; type: functional, organism-based; conditions: Mus musculus
[3] = test system: P388; test: Compound was tested in vitro for its inhibitory activity against murine P-388 leukemia; type: functional; conditions: Mus musculus, read-out: ID50 (the source's name)

COc1c(C)n(C2O[C@H](CO)[C@@H](O)[C@H]2O)ccc1=O (stereo partly drawn)
ID50 [1]: inactive

CC(=O)OC[C@H]1O[C@@H](n2cccc(OC(C)=O)c2=O)[C@H](OC(C)=O)[C@@H]1OC(C)=O
ID50 [1]: inactive

O=c1c(O)cccn1[C@@H]1O[C@H](CO)[C@@H](O)[C@@H]1O
ID50 [2]: inactive

Cc1c(O)c(O)cc[n+]1C1O[C@H](CO)[C@@H](O)[C@@H]1O (stereo partly drawn)
ID50 [1]: inactive

Cc1nccc(O)c1O
IC50 [3]: 110 µM

Oc1cccnc1O
IC50 [3]: 300 µM

O=c1c(O)cccn1[C@@H]1O[C@H](CO)[C@@H](O)[C@H]1O
IC50 [3]: 450 µM

Cc1c(O)c(=O)ccn1C1O[C@H](CO)[C@@H](O)[C@H]1O (stereo partly drawn)
IC50 [3]: 60 µM
